These results are taken from patent US20210205292A1, “INHIBITORS OF CREB-CBP INTERACTION FOR TREATMENT OF LEUKEMIA” (The Board of Trustees of the Leland Stanford Junior …, priority 2016, published 2021).

One test relates to CREB phosphorylation. In words: CREB phosphorylation in HL-60 cells. It is filed as cell-based, human. The settings on record: HL-60 cells; BI-D1870 5 μM, SB202190 10 μM, U0126 10 μM. An excerpt:
FIG. 12, panels A-D, illustrates the results of CyTOF Phenotyping and Compound A Combination Studies. […] Viability for Compound A treatment alone was 87.4±7.3%, versus 55.3±3.4% and 49.5±2.3% when combined with ERK and RSK inhibitors, respectively (* indicates p<0.05 compared to cells treated with Compound A alone). Panel D) Compound A inhibits CREB phosphorylation in the presence of serum. HL-60 cells were serum-starved then stimulated with serum.
Cells were lysed in RIPA buffer (Sigma), and the protein concentrations were determined by BCA assay (Thermo Scientific Pierce). Lysates were solubilized in 6×SDS PAGE buffer and […] of protein was loaded into 6-15% SDS PAGE gels, pheresed, and then transferred onto […] PVDF membrane (Millipore). Primary antibodies were applied at a dilution of 1:1000. Anti-Bcl-2, -Bax, -Mcl-1, -Bcl-XL, -Cyclin A and -Cyclin D1 antibodies were purchased from Cell Signaling Technologies. Anti-total acetylated histone and -ac-H3K27 were purchased from Santa Cruz Biotechnologies. Anti-actin and -CREB antibodies were purchased from upstate. Secondary antibodies were used at a 1:2500 dilution and purchased from Thermo Scientific/Pierce. WesternBright ECL was used for image acquisition on Image Lab software (Bio-Rad).

Test [1] relates to HL-60 cells. In words: HL-60 viability, combination of Compound A with kinase inhibitors. The test is classed as cell-based, human. Particulars: 48 hours.
In test [2] the test system is CREB-driven promoter (CRE). In words: CREB-driven (CRE) luciferase reporter in KG-1 cells. The test is classed as cell-based. The settings on record: KG-1 cells, 6 hours; 3, 10 and 30 μM. On the procedure:
(§1) KG-1 cell lines were created to express luciferase in a CREB-dependent or non-CREB-dependent fashion using lentiviral gene delivery. Cells were sorted for mCherry expression by flow cytometry and selected with puromycin. Luciferase activity was measured on a […] using the Promega Luciferase Activity Kit (Promega) per manufacturer's instructions following six hours of treatment with Compound A or 0.1% DMSO. The split Renilla luciferase complementation assay has been described previously (Li BX, and Xiao X. Discovery of a small-molecule inhibitor of the KIX-KID interaction. Chembiochem: a European journal of chemical biology. 2009; 10(17):2721-4). In this assay, the KID and KIX domains were fused to the N- and C-terminal regions of Renilla luciferase, respectively. Once KIX binds phosphorylated KID, the Renilla luciferase regions were brought together, resulting in luciferase activity.
(§2) To test the ability of Compound A to disrupt CREB-CBP binding in cells, a split Renilla luciferase complementation assay was performed. […] This early timepoint was selected to permit accurate reporter gene activity measurement prior to the onset of anticipated global cell dysfunction or death induced by Compound A. Treatment with 3 μM Compound A reduced luciferase activity by 33.2±7.7% at this timepoint. […] Thus, Compound A inhibits CREB function through disruption of CREB:CBP interaction.
On the technique in general: A reporter such as luciferase makes a cellular process visible.

The subject of a further test is CMV-driven promoter. In words: CMV-driven luciferase reporter in KG-1 cells. Particulars: 6 hours. The test is classed as cell-based. The protocol: as §1, §2
The subject of another test is KG-1 cells. Description: Viable cell count of engineered KG-1 cell lines (CREB KD, GFP, CREB OE, CBP OE). The test is classed as cell-based. The settings on record: same four KG-1 cell lines, 30 μM. The protocol:
(§3) AML cell lines were purchased from ATCC and maintained with IMDM (Gibco) supplemented with 10% FBS (Fisher Scientific) and 1% PSG (Gibco). Cells were plated at a density of 2-4×10^5 cells/ml, and treated with various doses of Compound A in 0.1% DMSO or 0.1% DMSO alone. Cell counts and viability were determined using the Vi-CELL XR Cell Viability Analyzer (Beckman Coulter). HL-60 and KG-1 cells overexpressing CREB or CBP were generated using lentiviral gene delivery with subsequent puromycin selection and FACs sorting for GFP. CREB knockdown was achieved by infecting cells with a lentivirus expressing the shRNA sequence 5′-[…]-3′ (SEQ ID NO:). For chemotherapy combination experiments, combination index values were calculated using median effects analysis on Calcusyn software. Human patient bone marrow samples were cultured in DMEM plus 20% FBS and 1×PSG, supplemented with recombinant GM-CSF (20 ng/ml), G-CSF (20 ng/ml), SCF (50 ng/ml), IL-3 (20 ng/ml), and IL-6 (10 ng/ml). Cells were plated at a concentration of 1×10^5 cells/ml in a 12-well plate. Vehicle (0.1% DMSO) or Compound A (2 μM) was added for up to 72 hours. All samples contained >85% AML blasts and were not sorted prior to performing experiments. Immunostaining and flow cytometry analyses were performed according to standard procedures. All antibodies were purchased from BD Biosciences. Single cell suspensions of bone marrow culture were subsequently analyzed on a D×P10 flow cytometer (Cytek). Bone marrow from AML patients were collected through voluntary patient participation at University of California, Los Angeles (Los Angeles, Calif., USA) and Stanford University (Palo Alto, Calif., USA) in compliance with the Institutional Review Board regulations of each institution.
To test the effects of CREB inhibition on AML cells, four AML cell lines were treated with doses of Compound A ranging from 100 pM to 10 μM for 48 hours. […] KG-1 cells were less sensitive to Compound A and expressed lower levels of CREB compared to HL-60 cells (FIG. 2, panel A). CREB was overexpressed to determine whether sensitivity of KG-1 cells to Compound A could be increased. KG-1 cell lines in which CREB or CBP was overexpressed, or CREB was knocked down by shRNA, were generated (FIG. 2C). A KG-1 cell line expressing only GFP was used as a control. These cell lines were treated with a range of Compound A concentrations for 48 hours (FIG. 2D). Experiments were also performed to examine the efficacy of combining Compound A with cytarabine or daunorubicin, standard drugs used in AML therapy.

In another test the test system is Caspase-3. In words: Caspase-3 protease activity (ApoTarget kit). The settings on record: etoposide control. The test is classed as cell-based. From the text:
The ApoTarget Caspase-3 Protease Activity Kit (Invitrogen) was used per manufacturer's instructions.
The balance between pro- and anti-apoptotic protein expression contributes to cell fate decisions. CREB regulates the expression of several anti-apoptotic proteins, including Bcl-2, Bcl-XL and Mcl-1. Bcl-2 expression in particular is known to mediate resistance to chemotherapy and influence clinical outcome in a number of cancer types, including AML. The ability of Compound A to cause apoptosis by disrupting the CREB-driven expression of these anti-apoptotic proteins was examined. In HL-60 cells treated with Compound A, apoptosis is induced in a dose- and time-dependent manner. […] Compound A elicited apoptosis through the intrinsic apoptosis pathway, with activation of Caspase-3 (FIG. 5, panel B) and detectable Caspase-9 cleavage (data not shown). Relative caspase-3 activity at 24 hours: 5.4±0.8 for etoposide, 1±0.78, 0.93±0.71, 1.02±0.67, 2.9±0.58, 5.1±0.63, 4.1±0.71 for 0, 1, 1.5, 2, 2.5 and 3 mM Compound A, respectively. Activity at 72 hours: 1.2±0.05 for etoposide, 1.0±0.02, 1.9±0.03, 3.7±0.04, 4.4±0.05, 2.1±0.03, 1.9±0.02 for 0, 1, 1.5, 2, 2.5 and 3 mM Compound A, respectively. The transcription of Bcl-2 decreased following 72 hours of 2 mM Compound A treatment (FIG. 5, panel C), and this was verified by Western blot analysis (FIG. 5, panel D). […] To confirm whether loss of Bcl-2 function alone is sufficient to induce apoptosis in AML cells, HL-60 cells were treated with the validated Bcl-2 inhibitor ABT-737 (50 to 200 nM). […] Bcl-2 levels are influenced by CREB expression in these AML cell lines (FIG. 11, panel C).

The subject of test [3] is HL-60 cells. In words: Flow cytometry of apoptosis (c-PARP+, aqua amine+) in HL-60 cells. It is filed as cell-based, human. Particulars: 50 to 200 nM, 72 hours. On the procedure:
as §3, with “Immunostaining and flow cytometry analyses were performed according to standard procedures. All antibodies were purchased from BD Biosciences.” left out, “Bone marrow from AML patients were collected through voluntary patient participation at University of California, Los Angeles (Los Angeles, Calif., USA) and Stanford University (Palo Alto, Calif., USA) in compliance with the Institutional Review Board regulations of each institution.” left out
On the technique in general: A flow cytometer gives signals particle by particle.

Test [4] concerns HL-60 cells. Description: HL-60 cell viability, Trypan blue exclusion assay. It is filed as cell-based, human. Particulars: 50 nM, 48 hours. From the text:
FIG. 11, panels A-D, illustrates ABT-737 Causes Apoptosis in HL-60 Cells; CyTOF Gating Scheme. […] Panel D) CyTOF gating scheme, used to perform analysis specifically on AML cells within AML patient marrow samples.

Entries after “also recorded” stand apart in the source; their conditions may differ.

In the case of `CC(C)CCN1c2nc(Nc3cc(F)c(O)c(F)c3)ncc2N(C)C(=O)C1C` (centres unmarked) [BI-D1870, reference compound], the “compensatory CREB phosphorylation following Compound A treatment” value in the test on CREB phosphorylation is given as “blocked compensatory CREB phosphorylation”. Also, the “effect of combination with Compound A on viability” value with HL-60 cells [1] is recorded as “additive effects”.
On to “N-methyl-(4-chlorophenyl)-3-hydroxy-naphthamide [Analog B, reference compound]”, for which the CREB-driven luciferase activity result in test [2] was “No statistical difference; also recorded: no significant effect”. Moreover, the CMV-driven luciferase expression entry in the test with CMV-driven promoter is reported as “No statistical difference; also recorded: no significant effect”. For the same molecule, in the test on KG-1 cells, the “viability or proliferation rate” value is “no reduction in viability or proliferation rate”.
As to `Oc1ccc(-c2nc(-c3ccncc3)c(-c3ccc(F)cc3)[nH]2)cc1` [SB202190, reference compound], the “compensatory CREB phosphorylation following Compound A treatment” value in the test on CREB phosphorylation is “blocked compensatory CREB phosphorylation”. In addition, the “effect of combination with Compound A on viability” value with HL-60 cells [1] is on record as “additive effects”.
Regarding `COc1cc([C@@H]2c3cc4c(cc3[C@@H](O[C@@H]3O[C@@H]5CO[C@@H](C)O[C@H]5[C@H](O)[C@H]3O)[C@H]3COC(=O)[C@H]23)OCO4)cc(OC)c1O` [etoposide, reference compound], the “relative caspase-3 activity” value amounted to 5.4±0.8 with Caspase-3 (24 hours) and 1.2±0.05 with Caspase-3 (72 hours).
`CN(C)CC[C@H](CSc1ccccc1)Nc1ccc(S(=O)(=O)NC(=O)c2ccc(N3CCN(Cc4ccccc4-c4ccc(Cl)cc4)CC3)cc2)cc1[N+](=O)[O-]` [ABT-737, reference compound]: the apoptosis result with HL-60 cells [3] is given as “Apoptosis was induced”. For the same molecule, the cell viability entry in the test with HL-60 cells [4] is given as “reduced cell viability”.
